Test results as given in patent US20120095024A1, “TOLUIDINE SULFONAMIDES AND THEIR USE” (Elara Pharmaceuticals GmbH, priority 2008, published 2012).

Experiments:
[1] = system: estrogen receptor (ER)-mediated transcriptional activity; assay: Inhibition of estrogen receptor (ER) signaling, ERE-tk-luc transfection assay in MCF-7 cells; assay type: cell-based; settings: Homo sapiens, MCF7, ERE-tk-luc luciferase readout, 24 h
Experimental: To determine the effect of the compounds on estrogen receptor (ER)-mediated transcriptional activity a transfection assay using the MCF-7 cell line was performed. A luciferase-coupled ERE-tk-luc construct was obtained from Dr. G. Reid (EMBL).
In brief, MCF-7 cells were maintained as described previously and seeded on the first experimental day at a concentration of 3500 cells/well in 100 μl medium and incubated under standard conditions for 24 h. Following this initial incubation period, transfection was carried out using 5 ng of the ERE-tk-luc construct (per well) and Exgene 500 transfection reagent (Fermentas) in a final buffered solution containing 150 mM NaCl and 20 mM Tris pH 8.4. The plates were then maintained for 3-4 hours until cell culture conditions in the incubator before compounds were added at 11× concentrations to yield the final desired compound concentrations in 0.5% DMSO (in the same manner as for the proliferation assays described previously).
After an additional 24 h incubation period the degree of inhibition of ER-signaling was determined via a luciferase readout. Cells were treated with Britelite™ plus solution according to the manufacturer's instructions (PerkinElmer, britelite plus, Ultra-High Sensitivity Luminescence Reporter Gene Assay System) and luciferase levels measured on an Envision HTS multilabel plate reader (PerkinElmer) in luminescence mode according to established protocols. Raw data were imported into an ActivityBase database (IDBS, ID Business Solutions) and IC50 values calculated using the IDBS program ActivityBase XE.

MCF7 cells = assay: Cell proliferation assay (ATPlite), MCF-7; assay type: cell-based, human; settings: inhibition of cell proliferation, 72 h
Experimental: MCF-7 human breast adenocarcinoma cells and HL-60 acute promyelocytic leukaemia cells were obtained from ATCC (LGC Promochem). HG-1 multiple myeloma cells were obtained from Dr. D. Hose (DKFZ Heidelberg). The CellSensor® HRE-bla HCT116 cell line (colorectal carcinoma) was obtained from Invitrogen.
Cells were grown under humidified 95% air, 5% CO2 at 37° C. in Dulbecco's modified Eagle's medium (DMEM: MCF-7) or RPMI 1640 medium (RPMI: HL-60, HG-1) supplemented with 10% fetal bovine serum (FBS), 100 U/ml penicillin and 100 μg/ml streptomycin, 2 mM L-glutamine, and 2 ng/ml IL-6 (for the HG-1 cell line only). The HCT116 cell line was grown under the same atmospheric conditions in McCoy's 5A medium supplemented with 10% FBS and penicillin/streptomycin as above, in addition to blasticidin as a selection marker at a final concentration of 5 μg/ml.
Cell proliferation experiments were carried out in 96-well tissue culture plates with seeding of 2000 cells/well (MCF-7) or 1000 cells/well (HL-60, HG-1) in 100 μl of the relevant medium. Cells were subsequently incubated under the conditions mentioned for 24 h prior to addition of compounds.
For the determination of compound EC50 values, 10 μl compounds at 11× concentrations in 5.5% DMSO were added to the wells at various concentrations yielding a final constant percentage of 0.5% DMSO at the desired 1× compound concentration. As a positive control, cells were treated with 5.5% DMSO. The cells were then incubated for a further 72 h prior to the measurement.
To determine the degree of inhibition of cell proliferation, cells were treated with ATPlite solution according to the manufacturer's instructions (PerkinElmer, ATPlite 1-step Luminescence ATP Detection Assay System) and luciferase readout measured on an Envision HTS multilabel plate reader (PerkinElmer) in luminescence mode according to established protocols. Raw data were imported into an ActivityBase database (IDBS, ID Business Solutions) and EC50 values calculated using the IDBS program ActivityBase XE. Table 2A and 2B show the IC50 values obtained in the above-outlined cell proliferation assay for exemplary compounds of the invention.

[2] = system: HIF mediated transcription; assay: Inhibition of activation of HIF mediated transcription under hypoxic conditions (CellSensor HRE-bla HCT-116); assay type: cell-based; settings: Homo sapiens; HRE-bla HCT-116 cells, deferoxamine-induced hypoxia, 24 h
Experimental: Inhibition of an activated HIF signaling response under chemically-induced hypoxic conditions due to compound treatment was determined using the CellSensor® HRE-bla HCT-116 stably transfected reporter cell line from Invitrogen according to the manufacturer's instructions. HIF is a transcriptional factor composed of the constitutively expressed HIF1β subunit and one of three HIFα subunits (HIF1α, HIF2α, HIF3α). This assay is responsive towards HIFa activity in general. In one example, HIF-1, when stabilized by hypoxic conditions, upregulates several genes to promote cell survival in low-oxygen conditions. These include glycolysis enzymes, which allow ATP synthesis in an oxygen-independent manner, and vascular endothelial growth factor (VEGF), which promotes angiogenesis. HIF-1 acts by binding to HIF-responsive elements (HREs) in promoters that generally contain the sequence NCGTG.
Cells were maintained as described previously and seeded into 384-well, clear-bottom plates (Corning 3712) at 15000 cells/well in 32 μl assay medium (Opti-MEM [Invitrogen], 0.5% FBS, 100 U/ml penicillin, 100 μg/ml streptomycin, 0.1 mM non-essential amino acids [NEAA], 1 mM sodium pyruvate, 5 mM HEPES [pH 7.3]). Following a 2 h incubation period, compounds (4 μl) were subsequently added to the cells at 10× concentrations in 5% DMSO and incubated under normal conditions for 30 min. To induce hypoxic conditions, 4 μl of a 2 mM deferoxamine (DFO) solution was added to the cells followed by 24 h incubation under standard assay conditions (as described). Control wells included wells containing only medium (no cells) and wells treated with 0.5% DMSO instead of compound.
Prior to the readout, the Substrate Loading Solution was prepared as described in the manufacturer's protocol and 10 μl added to each well. Following a further 2 h incubation period at room temperature and in the dark, fluorescence was measured at two wavelengths (blue channel: ex. 409 nm, em. 460 nm; green channel: ex. 409 nm, em. 530 nm) on a PerkinElmer Envision HTS. For the analysis, the average signal of the cell-free wells at 460 nm and 530 nm was first subtracted from the blue and green channel data, respectively. The blue/green emission ratios were then calculated for each well, dividing the background-corrected blue emission values by the background-corrected green emission values. IC50 values were determined from these ratios using GraphPad Prism (Prism 5, GraphPad software, Inc.).

Compound | IC50 [1] [nM] | EC50 (MCF7 cells; Homo sapiens) [nM] | EC50 [2] [nM] | EC50 (MCF7 cells) [nM]
Cc1ccc(-c2ccc(C#N)cc2)cc1NS(=O)(=O)c1cccc(F)c1 [Example 104, N-(4′-cyano-4-methylbiphenyl-3-yl)-3-fluorobenzenesulfonamide] | – | 1000 to 10000 | – | –
Cc1ccc(-c2ccc(C#N)cc2)cc1NS(=O)(=O)c1ccc([N+](=O)[O-])c(F)c1 [Example 105, N-(4′-cyano-4-methylbiphenyl-3-yl)-3-fluoro-4-nitrobenzenesulfonamide] | – | 1000 to 10000 | – | –
Cc1ccc(S(=O)(=O)Nc2cc(-c3ccc(N)cn3)ccc2C)cc1 [Example 106, N-(5-(5-aminopyridin-2-yl)-2-methylphenyl)-4-methylbenzenesulfonamide] | – | 1000 to 10000 | – | –
COc1nccc(-c2ccc(C)c(NS(=O)(=O)c3ccc(C)cc3)c2)n1 [Example 107, N-(5-(2-methoxypyrimidin-4-yl)-2-methylphenyl)-4-methylbenzenesulfonamide] | – | 1000 to 10000 | – | –
COc1ccc(S(=O)(=O)Nc2cc(-c3ccc(C#N)s3)ccc2C)cc1OC [Example 108, N-(5-(5-cyanothiophen-2-yl)-2-methylphenyl)-3.4-dimethoxybenzenesulfonamide] | – | – | – | 500 to 1000
COc1cc(S(=O)(=O)Nc2cc(-c3ccc(C#N)s3)ccc2C)ccc1F [Example 113, N-(5-(5-cyanothiophen-2-yl)-2-methylphenyl)-4-fluoro-3-methoxybenzenesulfonamide] | – | 500 to 1000 | – | –
Cc1ccc(-c2ccc(C#N)s2)cc1NS(=O)(=O)c1ccc2c(c1)OCO2 [Example 114, N-(5-(5-cyanothiophen-2-yl)-2-methylphenyl)benzo[d][1,3]dioxole-5-sulfonamide] | – | < 500 | < 500 | –
Cc1ccc(-c2ccc(C#N)cc2)cc1NS(=O)(=O)c1ccc(N(C)C)cc1 [Example 115, N-(4′-cyano-4-methylbiphenyl-3-yl)-4-(dimethylamino)benzenesulfonamide] | – | < 500 | – | –
Cc1ccc(-c2ccc(C#N)s2)cc1NS(=O)(=O)c1ccc(C#N)cc1 [Example 116, 4-cyano-N-(5-(5-cyanothiophen-2-yl)-2-methylphenyl)benzenesulfonamide] | – | 500 to 1000 | – | –
N-[5-(5-Cyano-pyridin-3-yl)-2-methyl-phenyl]-4-methoxy-benzenesulfonamide [Example 74] | – | – | – | < 500

The next lines start with results.

IC50 [1] [nM] | EC50 (MCF7 cells; Homo sapiens) [nM] | EC50 [2] [nM] | Compound | EC50 (MCF7 cells) [nM]
< 500 | < 500 | – | Cc1ccc(S(=O)(=O)Nc2cc(-c3ccco3)ccc2C)cc1 [Example 4, N-(5-Furan-2-yl-2-methyl-phenyl)-4-methyl-benzenesulfonamide] | –
< 500 | < 500 | – | Cc1ccc(S(=O)(=O)Nc2cc(-c3ccoc3)ccc2C)cc1 [Example 5, N-(5-Furan-3-yl-2-methyl-phenyl)-4-methyl-benzenesulfonamide] | –
< 500 | < 500 | < 500 | Cc1ccc(S(=O)(=O)Nc2cc(-c3ccc(C#N)cn3)ccc2C)cc1 [Example 43, N-[5-(5-Cyano-pyridin-2-yl)-2-methyl-phenyl]-4-methyl-benzenesulfonamide] | –
< 500 | < 500 | – | COc1ccc(S(=O)(=O)Nc2cc(-c3ccc(C#N)cn3)ccc2C)cc1 [Example 49, N-[5-(5-Cyano-pyridin-2-yl)-2-methyl-phenyl]-4-methoxy-benzenesulfonamide] | –
– | < 500 | < 500 | Cc1ccc(S(=O)(=O)Nc2cc(-c3csc(C#N)c3)ccc2C)cc1 [Example 68, N-[5-(5-Cyano-thiophen-3-yl)-2-methyl-phenyl]-4-methyl-benzenesulfonamide] | –
– | < 500 | < 500 | Cc1ccc(S(=O)(=O)Nc2cc(-c3ccc(C#N)c(F)c3)ccc2C)cc1 [Example 71, N-(4′-Cyano-3′-fluoro-4-methyl-biphenyl-3-yl)-4-methyl-benzenesulfonamide] | –
– | < 500 | < 500 | Cc1ccc(S(=O)(=O)Nc2cc(-c3csc(C#N)c3)ccc2C)cc1F [Example 95, N-(5-(5-cyanothiophen-3-yl)-2-methylphenyl)-3-fluoro-4-methylbenzenesulfonamide] | –
– | < 500 | – | COc1cc(-c2ccc(C)c(NS(=O)(=O)c3ccc(N)cc3)c2)ccc1C#N [Example 102, 4-amino-N-(4′-cyano-3′-methoxy-4-methylbiphenyl-3-yl)benzenesulfonamide] | –
– | < 500 | < 500 | COc1ccc(S(=O)(=O)Nc2cc(-c3ccc(C#N)c(OC)c3)ccc2C)cc1F [Example 103, N-(4′-cyano-3′-methoxy-4-methylbiphenyl-3-yl)-3-fluoro-4-methoxybenzenesulfonamide] | –
– | < 500 | – | COc1ccc(S(=O)(=O)Nc2cc(-c3ccc(C#N)s3)ccc2C)cc1C [Example 109, N-(5-(5-cyanothiophen-2-yl)-2-methylphenyl)-4-methoxy-3-methylbenzenesulfonamide] | –
– | < 500 | – | Cc1ccc(-c2ccc(C#N)cc2)cc1NS(=O)(=O)c1ccc(N)c(F)c1 [Example 110, 4-amino-N-(4′-cyano-4-methylbiphenyl-3-yl)-3-fluorobenzenesulfonamide] | –
– | < 500 | – | Cc1ccc(S(=O)(=O)Nc2cc(-c3ccc([N+](=O)[O-])c(C)n3)ccc2C)cc1 [Example 111, 4-methyl-N-(2-methyl-5-(6-methyl-5-nitropyridin-2-yl)phenyl)benzenesulfonamide] | –
– | < 500 | < 500 | Cc1cc(S(=O)(=O)Nc2cc(-c3ccc(C#N)s3)ccc2C)ccc1F [Example 112, N-(5-(5-cyanothiophen-2-yl)-2-methylphenyl)-4-fluoro-3-methylbenzenesulfonamide] | –
